According to PubChem BioAssay AID1963973 (Molecular Pharmacology Branch, DTP, NCI, 2024):

System: 883617-216-R-J1-PDC tumor spheroids, viability
Assay: Anticancer human tumor 883617-216-R-J1-PDC patient-derived bladder carcinoma cell line growth inhibition [PI3K]
Conditions: spheroids with HUVEC and MSC; for IC50: curve of first compound; for viability, T/C: stronger effect = lower value
Method in brief: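 Multi-cell spheroids combine tumor cells with HUVEC and human MSCs, treated with targeted agents alone or with inavolisib, alpelisib, duvelisib or copanlisib. Concentrations fall in half-log steps from at or near clinical Cmax, or from 10 microM where Cmax is unknown; viability read-out.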

[1] = second compound 0.00316 µM, first compound 0.000316 µM
[2] = second compound 0.00316 µM, first compound 0.001 µM
[3] = second compound 0.00316 µM, first compound 0.00316 µM
[4] = second compound 0.00316 µM, first compound 0.01 µM
[5] = second compound 0.00316 µM, first compound 0.0316 µM
[6] = second compound 0.00316 µM, first compound 0.1 µM
[7] = second compound 0.01 µM, first compound 0.000316 µM
[8] = second compound 0.01 µM, first compound 0.001 µM
[9] = second compound 0.01 µM, first compound 0.00316 µM
[10] = second compound 0.01 µM, first compound 0.01 µM
[11] = second compound 0.01 µM, first compound 0.0316 µM
[12] = second compound 0.01 µM, first compound 0.1 µM
[13] = second compound 0.0316 µM, first compound 0.000316 µM
[14] = second compound 0.0316 µM, first compound 0.001 µM
[15] = second compound 0.0316 µM, first compound 0.00316 µM
[16] = second compound 0.0316 µM, first compound 0.01 µM
[17] = second compound 0.0316 µM, first compound 0.0316 µM
[18] = second compound 0.0316 µM, first compound 0.1 µM
[19] = second compound 0.1 µM, first compound 0.000316 µM
[20] = second compound 0.1 µM, first compound 0.001 µM
[21] = second compound 0.1 µM, first compound 0.00316 µM
[22] = second compound 0.1 µM, first compound 0.01 µM
[23] = second compound 0.1 µM, first compound 0.0316 µM
[24] = second compound 0.1 µM, first compound 0.1 µM
[25] = second compound 0.316 µM, first compound 0.000316 µM
[26] = second compound 0.316 µM, first compound 0.001 µM
[27] = second compound 0.316 µM, first compound 0.00316 µM
[28] = second compound 0.316 µM, first compound 0.01 µM
[29] = second compound 0.316 µM, first compound 0.0316 µM
[30] = second compound 0.316 µM, first compound 0.1 µM
[31] = second compound 1 µM, first compound 0.000316 µM
[32] = second compound 1 µM, first compound 0.001 µM
[33] = second compound 1 µM, first compound 0.00316 µM
[34] = second compound 1 µM, first compound 0.01 µM
[35] = second compound 1 µM, first compound 0.0316 µM
[36] = second compound 1 µM, first compound 0.1 µM
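Note: spheroids exposed to agents for 7 days before the viability read.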

CC(=O)c1c(C)c2cnc(Nc3ccc(N4CCNCC4)cn3)nc2n(C2CCCC2)c1=O + COc1c(OCCCN2CCOCC2)ccc2c3n(c(=NC(=O)c4cnc(N)nc4)nc12)CCN3
IC50 (second compound 0.00316 µM): 41.2 nM | IC50 (second compound 0.01 µM): 24.7 nM | IC50 (second compound 0.0316 µM): < 0.316 nM | IC50 (second compound 0.1 µM): < 0.316 nM | IC50 (second compound 0.316 µM): < 0.316 nM | IC50 (second compound 1 µM): < 0.316 nM | viability, T/C [1]: 63.1% | viability, T/C [2]: 75.6% | viability, T/C [3]: 92.5% | viability, T/C [4]: 72.2% | viability, T/C [5]: 53.3% | viability, T/C [6]: 39.7% | viability, T/C [7]: 71.5% | viability, T/C [8]: 70.5% | viability, T/C [9]: 61.2% | viability, T/C [10]: 71.6% | viability, T/C [11]: 44.9% | viability, T/C [12]: 26.4% | viability, T/C [13]: 40.5% | viability, T/C [14]: 37.6% | viability, T/C [15]: 30.2% | viability, T/C [16]: 27.5% | viability, T/C [17]: 27.1% | viability, T/C [18]: 21.6% | viability, T/C [19]: 16.1% | viability, T/C [20]: 12.2% | viability, T/C [21]: 11.1% | viability, T/C [22]: 13% | viability, T/C [23]: 11.2% | viability, T/C [24]: 11.8% | viability, T/C [25]: 4.61% | viability, T/C [26]: 5.01% | viability, T/C [27]: 4.74% | viability, T/C [28]: 3.95% | viability, T/C [29]: 4.31% | viability, T/C [30]: 3.85% | viability, T/C [31]: 3.24% | viability, T/C [32]: 2.85% | viability, T/C [33]: 2.99% | viability, T/C [34]: 3.68% | viability, T/C [35]: 2.94% | viability, T/C [36]: 2.98%

CC(C)n1nc(-c2ccc3oc(N)nc3c2)c2c(N)ncnc21 + CC(Nc1ccc2c(c1)OCCn1cc(N3C(=O)OCC3C(F)F)nc1-2)C(N)=O
IC50 (second compound 0.00316 µM): 30 nM | IC50 (second compound 0.01 µM): 24.6 nM | IC50 (second compound 0.0316 µM): 7.16 nM | IC50 (second compound 0.1 µM): 0.331 nM | IC50 (second compound 0.316 µM): < 0.316 nM | IC50 (second compound 1 µM): < 0.316 nM | viability, T/C [1]: 96.5% | viability, T/C [2]: 88.1% | viability, T/C [3]: 75.4% | viability, T/C [4]: 72.1% | viability, T/C [5]: 50.5% | viability, T/C [6]: 16.6% | viability, T/C [7]: 85.5% | viability, T/C [8]: 76.4% | viability, T/C [9]: 75% | viability, T/C [10]: 69.8% | viability, T/C [11]: 44.2% | viability, T/C [12]: 19.6% | viability, T/C [13]: 61.9% | viability, T/C [14]: 60.8% | viability, T/C [15]: 54.4% | viability, T/C [16]: 49% | viability, T/C [17]: 31.4% | viability, T/C [18]: 16.6% | viability, T/C [19]: 52.2% | viability, T/C [20]: 41.2% | viability, T/C [21]: 37.5% | viability, T/C [22]: 32% | viability, T/C [23]: 22.1% | viability, T/C [24]: 11.5% | viability, T/C [25]: 31.9% | viability, T/C [26]: 20.6% | viability, T/C [27]: 24.8% | viability, T/C [28]: 15.8% | viability, T/C [29]: 14.4% | viability, T/C [30]: 10.2% | viability, T/C [31]: 17.4% | viability, T/C [32]: 17.7% | viability, T/C [33]: 13.9% | viability, T/C [34]: 11.2% | viability, T/C [35]: 11.5% | viability, T/C [36]: 5.87%
